ChEMBL document CHEMBL4219219, “The synthesis and antistaphylococcal activity of N-sulfonaminoethyloxime derivatives of dehydroabietic acid” (Bioorg Med Chem Lett, 2018)
Converted amounts (≈) assume the structure as drawn. The source made the active and inactive calls. The rule behind the calls is not given here.

Experiments:
Staphylococcus aureus [1] = assay: Antistaphylococcal activity against linezolid-resistant Staphylococcus aureus NRS-271 containing phage type E-MRSA 15 after 18 hrs by two-fold serial dilution method; type: functional; conditions: NRS-271, 18 h
[2] = Metabolic stability in Sprague-Dawley rat plasma after 0.5 to 24 hrs by LC-MS analysis; type: ADME, cell-free
NCI-H23 = assay: Cytotoxicity against human H23 cells assessed as decrease in cell survival at 20 times MIC after 24 hrs by MTT assay; type: cell-based; conditions: nci-h23, 24 h
SCLC-21H = assay: Cytotoxicity against human SCLC-21H cells assessed as decrease in cell survival at 20 times MIC after 24 hrs by MTT assay; type: cell-based
Staphylococcus aureus [3] = assay: Antistaphylococcal activity against aminoglycosides/tetracycline-resistant Staphylococcus aureus NRS-1 after 18 hrs by two-fold serial dilution method; type: functional; conditions: NRS-1, 18 h
Escherichia coli = assay: Antibacterial activity against Escherichia coli AB1157 at 50 ug/ml after 18 hrs by two-fold serial dilution method; type: functional, organism-based
Staphylococcus aureus [4] = assay: Antistaphylococcal activity against oxacillin/tetracycline-resistant Staphylococcus aureus NRS-100 after 18 hrs by two-fold serial dilution method; type: functional; conditions: NRS-100, 18 h
Staphylococcus aureus [5] = assay: Antistaphylococcal activity against gentamicin-resistant Staphylococcus aureus NRS-108 after 18 hrs by two-fold serial dilution method; type: functional; conditions: NRS-108, 18 h
HEK-293T = assay: Cytotoxicity against HEK293T cells assessed as decrease in cell survival at 20 times MIC after 24 hrs by MTT assay; type: cell-based; conditions: human
Staphylococcus aureus [6] = assay: Antistaphylococcal activity against erythromycin-resistant Staphylococcus aureus NRS-70 after 18 hrs by two-fold serial dilution method; type: functional; conditions: NRS-70, 18 h
Staphylococcus aureus [7] = assay: Antistaphylococcal activity against Staphylococcus aureus Newman treated with increasing concentration of test compound everyday for 12 hrs measured after 20 days by two-fold serial dilution method; type: functional
J82 = assay: Cytotoxicity against human J82 cells assessed as decrease in cell survival at 20 times MIC after 24 hrs by MTT assay; type: cell-based; conditions: j82, 24 h
WiDr = assay: Cytotoxicity against human WiDr cells assessed as decrease in cell survival at 20 times MIC after 24 hrs by MTT assay; type: cell-based
Staphylococcus aureus [8] = assay: Metabolic stability in Staphylococcus aureus Newman at MIC after 12 hrs by LC-MS analysis; type: ADME, organism-based; conditions: in vivo
Staphylococcus aureus [9] = assay: Antistaphylococcal activity against Staphylococcus aureus Newman after 18 hrs by two-fold serial dilution method; type: functional
Staphylococcus aureus [10] = assay: Antistaphylococcal activity against erythromycin-resistant Staphylococcus aureus NRS-70 treated with increasing concentration of test compound everyday for 12 hrs measured after 20 days by two-fold serial dilution method; type: functional
HGC-27 = assay: Cytotoxicity against human HGC27 cells assessed as decrease in cell survival at 20 times MIC after 24 hrs by MTT assay; type: cell-based; conditions: hgc-27, 24 h

Compound	MIC (Staphylococcus aureus [1]) [µg/mL]	Stability [2]	Activity (NCI-H23)	Activity (SCLC-21H)	MIC (Staphylococcus aureus [3]) [µg/mL]	Activity (Escherichia coli)	MIC (Staphylococcus aureus [4]) [µg/mL]	MIC (Staphylococcus aureus [5]) [µg/mL]	Activity (HEK-293T)	MIC (Staphylococcus aureus [6]) [µg/mL]	MIC (Staphylococcus aureus [7]) [µg/mL]	Activity (J82)	Activity (WiDr)	Stability (Staphylococcus aureus [8])	MIC (Staphylococcus aureus [9]) [µg/mL]	MIC (Staphylococcus aureus [10]) [µg/mL]	Activity (HGC-27)
Cc1noc(C)c1S(=O)(=O)NCCO/N=C1\C[C@H]2[C@](C)(C(=O)O)CCC[C@]2(C)c2cc(Br)c(C(C)C)cc21	1.56 to 3.13 (≈ 2.55 to 5.13 µM)	Stable	Non-Toxic	Non-Toxic	1.56 to 3.13 (≈ 2.55 to 5.13 µM)	inactive	3.13 to 6.25 (≈ 5.13 to 10.2 µM)	1.56 to 3.13 (≈ 2.55 to 5.13 µM)	Non-Toxic	1.56 to 3.13 (≈ 2.55 to 5.13 µM)	6.25 to 12.5 (≈ 10.2 to 20.5 µM)	Non-Toxic	Non-Toxic	Stable	1.56 to 3.13 (≈ 2.55 to 5.13 µM)	6.25 to 12.5 (≈ 10.2 to 20.5 µM)	Non-Toxic
CC(C)c1cc2c(cc1Br)[C@@]1(C)CCC[C@@](C)(C(=O)O)[C@@H]1C/C2=N\OCCNS(=O)(=O)c1ccc(C(F)(F)F)cc1	0.78 to 1.56 (≈ 1.18 to 2.37 µM)	Stable	Non-Toxic	Non-Toxic	0.78 to 1.56 (≈ 1.18 to 2.37 µM)	inactive	0.78 to 1.56 (≈ 1.18 to 2.37 µM)	0.78 to 1.56 (≈ 1.18 to 2.37 µM)	Non-Toxic	0.78 to 1.56 (≈ 1.18 to 2.37 µM)	–	Non-Toxic	Non-Toxic	Stable	1.56 to 3.13 (≈ 2.37 to 4.75 µM)	–	Non-Toxic
CC(C)c1cc2c(cc1Br)[C@@]1(C)CCC[C@@](C)(C(=O)O)[C@@H]1C/C2=N\OCCNS(=O)(=O)c1ccc(Cl)c(C(F)(F)F)c1	25 to 50 (≈ 36 to 72 µM)	–	–	–	12.5 to 25 (≈ 18 to 36 µM)	inactive	> 50	0.78 to 1.56 (≈ 1.12 to 2.25 µM)	–	0.78 to 1.56 (≈ 1.12 to 2.25 µM)	–	–	–	–	0.78 to 1.56 (≈ 1.12 to 2.25 µM)	–	–
Cc1ccccc1S(=O)(=O)NCCO/N=C1\C[C@H]2[C@](C)(C(=O)O)CCC[C@]2(C)c2cc(Br)c(C(C)C)cc21	1.56 to 3.13 (≈ 2.58 to 5.17 µM)	–	–	–	1.56 to 3.13 (≈ 2.58 to 5.17 µM)	inactive	3.13 to 6.25 (≈ 5.17 to 10.3 µM)	1.56 to 3.13 (≈ 2.58 to 5.17 µM)	–	1.56 to 3.13 (≈ 2.58 to 5.17 µM)	–	–	–	–	1.56 to 3.13 (≈ 2.58 to 5.17 µM)	–	–
CC(C)c1cc2c(cc1Br)[C@@]1(C)CCC[C@@](C)(C(=O)O)[C@@H]1C/C2=N\OCCNS(=O)(=O)c1ccccc1F	1.56 to 3.13 (≈ 2.56 to 5.13 µM)	–	–	–	1.56 to 3.13 (≈ 2.56 to 5.13 µM)	inactive	3.13 to 6.25 (≈ 5.13 to 10.3 µM)	3.13 to 6.25 (≈ 5.13 to 10.3 µM)	–	1.56 to 3.13 (≈ 2.56 to 5.13 µM)	–	–	–	–	1.56 to 3.13 (≈ 2.56 to 5.13 µM)	–	–
CC(C)c1cc2c(cc1Br)[C@@]1(C)CCC[C@@](C)(C(=O)O)[C@@H]1C/C2=N\OCCNS(=O)(=O)c1cc(C(F)(F)F)cc(C(F)(F)F)c1	> 50	–	–	–	> 50	inactive	> 50	0.78 to 1.56 (≈ 1.07 to 2.14 µM)	–	0.78 to 1.56 (≈ 1.07 to 2.14 µM)	–	–	–	–	0.78 to 1.56 (≈ 1.07 to 2.14 µM)	–	–
CC(C)c1cc2c(cc1Br)[C@@]1(C)CCC[C@@](C)(C(=O)O)[C@@H]1C/C2=N\OCCNS(=O)(=O)c1ccc(Cl)cc1	1.56 to 3.13 (≈ 2.49 to 5 µM)	–	–	–	1.56 to 3.13 (≈ 2.49 to 5 µM)	inactive	1.56 to 3.13 (≈ 2.49 to 5 µM)	1.56 to 3.13 (≈ 2.49 to 5 µM)	–	0.78 to 1.56 (≈ 1.25 to 2.49 µM)	–	–	–	–	0.78 to 1.56 (≈ 1.25 to 2.49 µM)	–	–
CC(C)c1cc2c(cc1Br)[C@@]1(C)CCC[C@@](C)(C(=O)O)[C@@H]1C/C2=N\OCCNS(=O)(=O)c1ccc(Br)c(C(F)(F)F)c1	0.78 to 1.56 (≈ 1.06 to 2.11 µM)	–	–	–	0.78 to 1.56 (≈ 1.06 to 2.11 µM)	inactive	0.78 to 1.56 (≈ 1.06 to 2.11 µM)	0.78 to 1.56 (≈ 1.06 to 2.11 µM)	–	0.78 to 1.56 (≈ 1.06 to 2.11 µM)	–	–	–	–	0.78 to 1.56 (≈ 1.06 to 2.11 µM)	–	–
CC(C)c1cc2c(cc1Br)[C@@]1(C)CCC[C@@](C)(C(=O)O)[C@@H]1C/C2=N\OCCNS(=O)(=O)c1ccccc1	1.56 to 3.13 (≈ 2.64 to 5.29 µM)	–	–	–	1.56 to 3.13 (≈ 2.64 to 5.29 µM)	inactive	1.56 to 3.13 (≈ 2.64 to 5.29 µM)	1.56 to 3.13 (≈ 2.64 to 5.29 µM)	–	0.78 to 1.56 (≈ 1.32 to 2.64 µM)	–	–	–	–	1.56 to 3.13 (≈ 2.64 to 5.29 µM)	–	–
CC(C)c1cc2c(cc1Br)[C@@]1(C)CCC[C@@](C)(C(=O)O)[C@@H]1C/C2=N\OCCNS(=O)(=O)c1ccc(Br)s1	1.56 to 3.13 (≈ 2.31 to 4.63 µM)	–	–	–	1.56 to 3.13 (≈ 2.31 to 4.63 µM)	inactive	1.56 to 3.13 (≈ 2.31 to 4.63 µM)	1.56 to 3.13 (≈ 2.31 to 4.63 µM)	–	1.56 to 3.13 (≈ 2.31 to 4.63 µM)	–	–	–	–	1.56 to 3.13 (≈ 2.31 to 4.63 µM)	–	–
CC(C)c1cc2c(cc1Br)[C@@]1(C)CCC[C@@](C)(C(=O)O)[C@@H]1C/C2=N\OCCNS(=O)(=O)c1ccc(F)cc1	1.56 to 3.13 (≈ 2.56 to 5.13 µM)	–	–	–	1.56 to 3.13 (≈ 2.56 to 5.13 µM)	inactive	1.56 to 3.13 (≈ 2.56 to 5.13 µM)	1.56 to 3.13 (≈ 2.56 to 5.13 µM)	–	1.56 to 3.13 (≈ 2.56 to 5.13 µM)	–	–	–	–	1.56 to 3.13 (≈ 2.56 to 5.13 µM)	–	–
CC(C)c1cc2c(cc1Br)[C@@]1(C)CCC[C@@](C)(C(=O)O)[C@@H]1C/C2=N\OCCNS(=O)(=O)c1cccc(Br)c1	1.56 to 3.13 (≈ 2.33 to 4.67 µM)	–	–	–	1.56 to 3.13 (≈ 2.33 to 4.67 µM)	inactive	1.56 to 3.13 (≈ 2.33 to 4.67 µM)	0.78 to 1.56 (≈ 1.16 to 2.33 µM)	–	0.78 to 1.56 (≈ 1.16 to 2.33 µM)	–	–	–	–	0.78 to 1.56 (≈ 1.16 to 2.33 µM)	–	–
CC(C)c1cc2c(cc1Br)[C@@]1(C)CCC[C@@](C)(C(=O)O)[C@@H]1C/C2=N\OCCNS(=O)(=O)c1c(Cl)cccc1Cl	1.56 to 3.13 (≈ 2.36 to 4.74 µM)	–	–	–	1.56 to 3.13 (≈ 2.36 to 4.74 µM)	inactive	1.56 to 3.13 (≈ 2.36 to 4.74 µM)	1.56 to 3.13 (≈ 2.36 to 4.74 µM)	–	0.78 to 1.56 (≈ 1.18 to 2.36 µM)	–	–	–	–	1.56 to 3.13 (≈ 2.36 to 4.74 µM)	–	–
CC(C)c1cc2c(cc1Br)[C@@]1(C)CCC[C@@](C)(C(=O)O)[C@@H]1C/C2=N\OCCNS(=O)(=O)c1cccc2cccnc12	3.13 to 6.25 (≈ 4.87 to 9.73 µM)	–	–	–	1.56 to 3.13 (≈ 2.43 to 4.87 µM)	inactive	3.13 to 6.25 (≈ 4.87 to 9.73 µM)	3.13 to 6.25 (≈ 4.87 to 9.73 µM)	–	1.56 to 3.13 (≈ 2.43 to 4.87 µM)	–	–	–	–	1.56 to 3.13 (≈ 2.43 to 4.87 µM)	–	–
CC(C)c1cc2c(cc1Br)[C@@]1(C)CCC[C@@](C)(C(=O)O)[C@@H]1C/C2=N\OCCNS(=O)(=O)c1ccccc1Br	1.56 to 3.13 (≈ 2.33 to 4.67 µM)	–	–	–	1.56 to 3.13 (≈ 2.33 to 4.67 µM)	inactive	1.56 to 3.13 (≈ 2.33 to 4.67 µM)	1.56 to 3.13 (≈ 2.33 to 4.67 µM)	–	1.56 to 3.13 (≈ 2.33 to 4.67 µM)	–	–	–	–	1.56 to 3.13 (≈ 2.33 to 4.67 µM)	–	–
CC(C)c1cc2c(cc1Br)[C@@]1(C)CCC[C@@](C)(C(=O)O)[C@@H]1C/C2=N\OCCNS(=O)(=O)c1ccccc1Cl	1.56 to 3.13 (≈ 2.49 to 5 µM)	–	–	–	1.56 to 3.13 (≈ 2.49 to 5 µM)	inactive	1.56 to 3.13 (≈ 2.49 to 5 µM)	1.56 to 3.13 (≈ 2.49 to 5 µM)	–	0.78 to 1.56 (≈ 1.25 to 2.49 µM)	–	–	–	–	0.78 to 1.56 (≈ 1.25 to 2.49 µM)	–	–
